Molecules are shown by their SMILES. Several values for one entry are separate records, joined by “and”; a condition that tells them apart may be missing. Equal values may be shown once. Entries after “also recorded” stand apart in the source; their conditions may differ.

A word on the IC50: it is the concentration needed to halve the response being measured. The low end stands for inhibition by little substance, the high end for a need for much substance.

Data set [1] has as its system myeloproliferative neoplasms patients. Conditions: cited from earlier work; for effect on symptoms, clonal hematopoiesis, mutant gene load / side effects / safety in patients: clinical use.
Data set [2] relates to HEL cells (human erythroleukemia cell line). In words: CellTiter-Lumi luminescence proliferation of naive HEL cells, 48 h. It counts as cell-based. Conditions: for activity at 0.1 µM / activity at 0.3 µM / activity at 1 µM / activity at 3 µM / activity at 10 µM: vs DMSO control, read-out: average proliferation rate of HEL cells. On the procedure:
(§1) HELs (Human erythroleukemia cell lines) and Ruxolitinib-resistant HEL cells were both cultured in a RPMI medium (Gibco) containing 20% heat-inactivated fetal bovine serum (Gibco) and 1% penicillin/streptomycin.
(§2) Ruxolitinib and other compounds were all purchased from Selleck, dissolved in DMSO with a stock solution concentration of 10 mM, and cryopreserved at −80° C. The working solution was diluted to a specified multiple using a RPMI medium and then used for treating cells. Ruxolitinib was specifically ruxolitinib phosphate.
(§3) To detect the antiproliferative effect of the inhibitor, the aforementioned cell lines were cultured at 3,000 cells/100 μL of the system per well, added with increasing concentrations of Ruxolitinib (concentration gradients of HEL cells: 0, 0.1, 1, 2.5, 5 μM; or 0, 0.1, 0.3, 1, 3, 10 μM), and added with DMSO to make up to the same amount. 4 parallel replicate groups were set up, and 3 blank wells (wells containing culture media without cells) were set up.
(§4) A calculation formula of the cell proliferation rate was: cell proliferation rate=(Luminescence value of the group added with the drug-average Luminescence value of the blank wells)/(Luminescence value of the DMSO control group-average Luminescence value of the blank wells)×100%.
In order to detect the effects of the compounds on the proliferation abilities of drug-resistant myeloproliferative neoplasm cells, the method was to treat the HEL naïve cell lines with increasing concentrations of Ruxolitinib and the compounds respectively, and to detect the proliferation of the cells by a CellTiter-Lumi™ luminescence method.

Data set [3] deals with HEL^RE cells (Ruxolitinib-resistant HEL). Nature of the data set: CellTiter-Lumi luminescence proliferation of Ruxolitinib-resistant HEL^RE cells, 48 h. Conditions: for inhibition of proliferation of HEL^RE cells (in words): 0.1-10 μM; for activity at 0.1 µM / activity at 0.3 µM / activity at 1 µM / activity at 3 µM / activity at 10 µM: vs DMSO control, read-out: average proliferation rate of HEL^RE cells. It counts as cell-based, human.
Excerpt: as §1
A Ruxolitinib-resistant HEL model, i.e., a HEL^RE model, was constructed by starting the addition of Ruxolitinib at a concentration lower than the IC50 of naïve cells and slowly incrementing the concentration to a high concentration, and preventing the cells from being killed. Our starting concentration was 0.1 μM. The drug was added upon occurrence of cell proliferation. The drug addition gradient was an increment at a multiple of 1.25, and the final concentration was 2.0 μM. Stable drug-resistant cells were obtained after 4-6 weeks.
as §2, §3, §4
A method for evaluating whether the model was successfully constructed was to compare the IC50s of resistant cells and naïve cells.
In order to detect the effects of five compounds on the proliferation abilities of drug-resistant myeloproliferative neoplasm cells, the method was to treat HEL^RE with increasing concentrations of Ruxolitinib and the five compounds respectively, and to detect the proliferation of the cells by a CellTiter-Lumi™ luminescence method.

The subject of data set [4] is HEL cells (human erythroleukemia cell line). In words: Annexin V-PI staining and flow cytometry, apoptosis of HEL cells, 24 h. It counts as cell-based. On the procedure: • 1. the cell lines and inhibitors were the same as those in Example 1. • 2. detection of cell apoptosis
(§5) To detect the apoptosis-promoting effect of the inhibitors, HEL naïve cell strains were treated with Ruxolitinib and the compounds for 24 hours respectively (with concentrations of: 0, 0.1, 0.5, 1 μM or 0, 0.1, 0.3, 1, 3, 10 μM), and added with DMSO to make up to the same amount. 3 parallel replicate groups were set up, and cell apoptosis was detected by Annexin V and PI staining followed by flow cytometry.
(§6) A calculation formula of cell apoptosis rate was: cell apoptosis rate=the ratio of early apoptotic cells (Annexin V^+/PI^−)+the ratio of late apoptotic cells and necrotic cells (Annexin V^+/PI^+).

For data set [5], the system named is HEL^RE cells (Ruxolitinib-resistant HEL). Nature of the data set: Annexin V-PI staining and flow cytometry, apoptosis of HEL^RE cells. It counts as cell-based, human. Conditions: for average apoptosis rate of HEL-RE cells: 24 h; for promotion of apoptosis of HEL^RE cells (in words): 0.1-10 μM. The procedure:
as §5, §6
In order to detect the effects of compounds on the abilities of drug-resistant myeloproliferative neoplasm cells, the method was to treat HEL^RE with increasing concentrations of Ruxolitinib and the compounds, and to detect cell apoptosis by Annexin V and PI staining followed by flow cytometry.
(In general: In flow cytometry, cells or beads pass a laser one at a time.)

Where [6] appears, read: Homo sapiens, HEL^RE cells, 48 h.

For the molecule `NC(=O)NO` [Hydroxyurea, hydroxyurea], in data set [1], the “effect on symptoms, clonal hematopoiesis, mutant gene load” value is “can only relieve symptoms but cannot inhibit clonal hematopoiesis”; the “side effects / safety in patients” value is “may increase the risks of myelodysplastic syndrome and acute myelogenous leukemia”.

For `Cn1c(Nc2ccc(C(F)(F)F)cc2)nc2cc(Oc3ccnc(-c4ncc(C(F)(F)F)[nH]4)c3)ccc21` [RAF265], the “inhibition of proliferation of HEL cells (in words)” value in data set [2] (0.1-10 μM) was “can successfully inhibit the proliferation of the HEL cells; also recorded: could inhibit the proliferation of the HEL cells, this effect was increased with the increase of the drug concentration”. For the same molecule, the “inhibitory effect on proliferation compared with Ruxolitinib” value in data set [2] (0.1-10 μM) is on record as “its inhibitory effect was better than that of Ruxolitinib”. In addition, the activity at 0.1 µM in data set [2] (Homo sapiens, 48 h) is 66.1 ± 4.71%; in data set [3] (setting [6]), 92 ± 3.92%. Also, the activity at 0.3 µM in data set [2] (Homo sapiens, 48 h) is 45.2 ± 2.96%; in data set [3] (setting [6]), 67.2 ± 3.7%. The activity at 1 µM in data set [2] (Homo sapiens, 48 h) worked out at 37 ± 2.18%; in data set [3] (setting [6]) it was 35.8 ± 3.88%. Also, the activity at 3 µM is 30 ± 0.13% in data set [2] (Homo sapiens, 48 h) and 21.8 ± 1.48% in data set [3] (setting [6]). Also, the activity at 10 µM is 19.2 ± 0.99% in data set [2] (Homo sapiens, 48 h) and 3.45 ± 0.58% in data set [3] (setting [6]). The “overall effectiveness among the compounds” value in data set [2] (proliferation and apoptosis taken together) is on record as “more effective”; in data set [3] (HEL^RE cells, proliferation and apoptosis taken together), “more effective”. Further, the “inhibition of proliferation of HEL^RE cells (in words)” value in data set [3] (HEL^RE cells) was “could inhibit the proliferation of the HEL^RE cells, and this effect increased with increase in the drug concentration”. The “average apoptosis rate of HEL cells” value is 7.24±1.30% and 7.24% in data set [4] (0.1 μM); 7.19±0.400% and 7.19% in data set [4] (0.3 μM); 8.11±0.260% and 8.11% in data set [4] (1 μM); 10.7±1.22% and 10.7% in data set [4] (3 μM); 12.8±1.44% and 12.8% in data set [4] (10 μM). The “effect on apoptosis compared with Ruxolitinib” value in data set [4] (0.1-10 μM) was “its inhibitory effect was better than that of Ruxolitinib”. In data set [4] (0.1-10 μM), the “promotion of apoptosis of HEL cells (in words)” value was “could promote the apoptosis of the HEL cells, this effect was increased with the increase of the drug concentration; also recorded: can promote the apoptosis of the HEL cells”. Moreover, the “average apoptosis rate of HEL-RE cells” value in data set [5] (0.1 μM) is 6.48±0.480% and 6.48%; in data set [5] (0.3 μM), 7.31±0.140% and 7.31%; in data set [5] (1 μM), 8.24±0.730% and 8.24%; in data set [5] (3 μM), 11.9±0.520% and 11.9%; in data set [5] (10 μM), 19.1±3.75% and 19.1%. In data set [5], the “promotion of apoptosis of HEL^RE cells (in words)” value was “could promote apoptosis of the HEL^RE cells, and this effect increased with increase in the drug concentration; also recorded: can promote the apoptosis of the HEL^RE cells”.

Turning to `N#CC[C@H](C1CCCC1)n1cc(-c2ncnc3[nH]ccc23)cn1` [Ruxolitinib], the activity at 0.1 µM in data set [2] (Homo sapiens, 48 h) stood at 80.9 ± 1.35%; in data set [3] (setting [6]) it was 105 ± 2.08%. Further, the activity at 0.3 µM in data set [2] (Homo sapiens, 48 h) turned out to be 54.9 ± 4.35%; in data set [3] (setting [6]) it was 105 ± 3.59%. The activity at 1 µM amounted to 42.7 ± 4.05% in data set [2] (Homo sapiens, 48 h) and 104 ± 9.46% in data set [3] (setting [6]). Besides, the activity at 3 µM is 34.7 ± 1.14% in data set [2] (Homo sapiens, 48 h) and 109 ± 4.39% in data set [3] (setting [6]). Moreover, the activity at 10 µM in data set [2] (Homo sapiens, 48 h) is 29.4 ± 0.49%; in data set [3] (setting [6]), 96 ± 3.69%. The half-inhibitory concentration (IC50) came to 2.31 µM in data set [2] (Homo sapiens, 48 h, mean (95% confidence interval)) and 44.7 µM in data set [3] (Homo sapiens, HEL^RE cells, 48 h, mean (95% confidence interval)). The “drug resistance index (ratio of IC50s of resistant and naive cells)” value in data set [3] (HEL^RE vs HEL cells, 2880 min) is 19.0. In addition, the “average apoptosis rate of HEL cells” value in data set [4] (0.1 μM) was 7.40±0.059% and 7.40%; in data set [4] (0.3 μM) it was 7.46±0.679% and 7.46%; in data set [4] (1 μM) it was 8.61±0.403% and 8.61%; in data set [4] (3 μM), 7.19±0.209% and 7.19%; in data set [4] (10 μM) it was 6.36±0.036% and 6.36%. Moreover, the “average apoptosis rate of HEL-RE cells” value in data set [5] (0.1 μM) is 12.4±0.540% and 12.4%; in data set [5] (0.3 μM), 13.0±1.03% and 13.0%; in data set [5] (1 μM) it was 10.8±1.02% and 10.8%; in data set [5] (3 μM), 10.2±0.880% and 10.2%; in data set [5] (10 μM), 10.6±1.33% and 10.6%. For the same molecule, the “patients developing drug resistance” value in data set [1] (MF patients treated for 1 year, type I JAK inhibitors such as RUX) is recorded as “more than 40%”. Besides, the “effect on symptoms, clonal hematopoiesis, mutant gene load” value in data set [1] is “cannot reduce the load of mutant genes”. The “side effects / safety in patients” value in data set [1] was “more severe anemia; also recorded: bone marrow suppression as a common side effect”. Also, in data set [1] (intermediate- and high-risk MF and PV, Phase II and III trials, vs optimal therapy), the “spleen volume and symptoms” value was “can reduce the spleen volume and alleviate symptoms”.

Take `Cc1ccc2c(Nc3cccc(Cl)c3F)nccc2c1NC(=O)c1csc2c(N)ncnc12` [Belvarafenib]: the “inhibition of proliferation of HEL cells (in words)” value in data set [2] (0.1-10 μM) is given as “could not inhibit the proliferation of the HEL cells”. For the same molecule, the activity at 0.1 µM came to 98.9 ± 6.41% in data set [2] (Homo sapiens, 48 h) and 104 ± 6.13% in data set [3] (setting [6]). For the same molecule, the activity at 0.3 µM is 89.2 ± 4.68% in data set [2] (Homo sapiens, 48 h) and 92.4 ± 2.45% in data set [3] (setting [6]). Besides, the activity at 1 µM in data set [2] (Homo sapiens, 48 h) worked out at 98.2 ± 3.19%; in data set [3] (setting [6]), 70.4%. Besides, the activity at 3 µM in data set [2] (Homo sapiens, 48 h) is 90.1 ± 4.72%; in data set [3] (setting [6]) it was 45.4 ± 2.33%. The activity at 10 µM in data set [2] (Homo sapiens, 48 h) worked out at 87.3 ± 2.39%; in data set [3] (setting [6]), 31.1 ± 3.6%. In data set [3] (HEL^RE cells), the “inhibition of proliferation of HEL^RE cells (in words)” value is “could inhibit the proliferation of the HEL^RE cells, and this effect increased with increase in the drug concentration”. Besides, the “average apoptosis rate of HEL cells” value in data set [4] (0.1 μM) is 6.58±0.760% and 6.58%; in data set [4] (0.3 μM), 7.42±0.950% and 7.42%; in data set [4] (1 μM) it was 7.80±0.700% and 7.80%; in data set [4] (3 μM), 7.17±1.31% and 7.17%; in data set [4] (10 μM), 7.55±0.160% and 7.55%. The “promotion of apoptosis of HEL cells (in words)” value in data set [4] (0.1-10 μM) was “could not promote apoptosis of the HEL cells”. The “average apoptosis rate of HEL-RE cells” value was 5.55±0.440% and 5.55% in data set [5] (0.1 μM); 5.40±0.570% and 5.40% in data set [5] (0.3 μM); 5.71±0.260% and 5.71% in data set [5] (1 μM); 6.05±0.430% and 6.05% in data set [5] (3 μM); 7.13±0.450% and 7.13% in data set [5] (10 μM). For the same molecule, in data set [5], the “promotion of apoptosis of HEL^RE cells (in words)” value was “could not promote apoptosis of the HEL^RE cells”.

With `Cc1cnc(Nc2ccc(OCCN3CCCC3)cc2)nc1Nc1cccc(S(=O)(=O)NC(C)(C)C)c1` [Fedratinib], the “side effects / safety in patients” value in data set [1] is given as “may cause encephalopathy, including the risk of Wernicke's encephalopathy”.

The values are drawn from patent publication US20260294905A1, “USE OF PLURALITY OF COMPOUNDS IN PREPARATION OF DRUG FOR TREATING MYELOPROLIFERATIVE NEOPLASMS” (THE SECOND XIANGYA HOSPITAL OF CENTRAL SOUTH UNIVERSITY, priority 2022, published 2026).
